Source: patent US20060241172A1, “Benzodioxane and benzodioxolane derivatives and uses thereof” (Wyeth, priority 2005, published 2006)
pEC50: −log10 of the molar value. Structures can show the parent of a compound that is named as a salt.

Tested on: not given
Assay: not given
Conditions: not given

| Compound | melting point |
| --- | --- |
| NC[C@H]1COc2cc(Cl)cc(-c3cc(Cl)ccc3Cl)c2O1 (as salt: hydrochloride) [Compound I-67, (2S)-[6-Chloro-8-(2,5-dichloro-phenyl)-2,3-dihydro-benzo[1,4]dioxin-2-yl]-methyl amine] | 205 to 207 °C |
| NCC1COc2cccc(-c3ccccc3C(F)(F)F)c2O1 (stereo not drawn) (as salt: fumarate) [Compound I-4, ({8-[2-(Trifluoromethyl)phenyl]-2,3-dihydro-1,4-benzodioxin-2-yl}methyl)amine] | 208 to 209 °C |
| CCNCC1Oc2cc(F)cc(-c3ccccc3Cl)c2O1 (stereo not drawn) (as salt: hydrochloride) [Compound I-88, N-{[4-(2-Chlorophenyl)-6-fluoro-1,3-benzodioxol-2-yl]methyl}ethanamine] | 182 to 183 °C |
| NC[C@H]1COc2cc(Cl)cc(-c3ccccc3Cl)c2O1 (as salt: hydrochloride) [Compound I-58, (2S)-[6-Chloro-8-(2-chloro-phenyl)-2,3-dihydro-benzo[1,4]dioxin-2-yl]-methylamine] | 228 to 230 °C |
| CNCC1COc2cccc(-c3cc(F)ccc3F)c2O1 (stereo not drawn) (as salt: fumarate) [Compound I-29, {[8-(2,5-Difluorophenyl)-2,3-dihydro-1,4-benzodioxin-2-yl]methyl}methylamine] | 193 to 194 °C |
| NC[C@H]1COc2ccc(F)c(-c3ccccc3Cl)c2O1 (as salt: hydrochloride) [Compound I-71, (2S)-[8-(2-Chloro-phenyl)-7-fluoro-2,3-dihydro-benzo[1,4]dioxin-2-yl]-methylamine] | 208 to 210 °C |
| NCC1Oc2cc(Cl)cc(-c3ccccc3Cl)c2O1 (stereo not drawn) (as salt: hydrochloride) [Compound I-90, [6-Chloro-4-(2-chloro-phenyl)-benzo[1,3]dioxol-2-yl]-methylamine] | > 250 °C |
| Cc1cc(Cl)ccc1-c1cc(Cl)cc2c1OC(CN)O2 (stereo not drawn) (as salt: hydrochloride) [Compound I-97, [6-Chloro-4-(4-chloro-2-methyl-phenyl)-benzo[1,3]dioxol-2-yl]-methylamine] | > 250 °C |
| Cc1cccc(C)c1-c1cc(Cl)cc2c1O[C@@H](CN)CO2 (as salt: hydrochloride) [Compound I-69, (2S)-[6-Chloro-8-(2,6-dimethyl-phenyl)-2,3-dihydro-benzo[1,4]dioxin-2-yl]-methyl amine] | 220 to 222 °C |
| NCC1COc2cccc(-c3cccc(F)c3F)c2O1 (stereo not drawn) (as salt: fumarate) [Compound I-13, {[8-(2,3-Difluorophenyl)-2,3-dihydro-1,4-benzodioxin-2-yl]methyl}amine] | 189 to 190 °C |
| COc1cccc(-c2cc(Cl)cc3c2O[C@@H](CN)CO3)c1OC (as salt: hydrochloride) [Compound I-63, (2S)-[6-Chloro-8-(2,3-dimethoxy-phenyl)-2,3-dihydro-benzo[1,4]dioxin-2-yl]-methyl amine] | 197 to 199 °C |
| COc1ccccc1-c1cccc2c1O[C@@](C)(CN)CO2 (as salt: fumarate) [Compound I-52, {[(2S)-8-(2-Methoxyphenyl)-2-methyl-2,3-dihydro-1,4-benzodioxin-2-yl]methyl}amine] | 128 to 131 °C |
| NCC1Oc2cc(Cl)cc(-c3ccccc3F)c2O1 (stereo not drawn) (as salt: salt) [Compound I-93, [6-Chloro-4-(2-fluoro-phenyl)-benzo[1,3]dioxol-2-yl]-methylamine] | > 250 °C |
| NC[C@H]1COc2cc(Cl)cc(-c3ccccc3C(F)(F)F)c2O1 (as salt: hydrochloride) [Compound I-62, (2S)-[6-Chloro-8-(2-trifluoromethyl-phenyl)-2,3-dihydro-benzo[1,4]dioxin-2-yl]-methylamine] | 231 to 233 °C |
| CNCC1COc2cccc(-c3cc(Cl)ccc3OC)c2O1 (stereo not drawn) (as salt: fumarate) [Compound I-31, {[8-(5-Chloro-2-methoxyphenyl)-2,3-dihydro-1,4-benzodioxin-2-yl]methyl}methylamine] | 172 to 173 °C |
| CCNCC1COc2cccc(-c3ccc(Cl)cc3Cl)c2O1 (stereo not drawn) (as salt: fumarate) [Compound I-33, N-{[8-(2,4-Dichlorophenyl)-2,3-dihydro-1,4-benzodioxin-2-yl]methyl}ethanamine] | 179 to 180 °C |
| NC[C@H]1COc2ccc(F)c(-c3ccc(Cl)cc3Cl)c2O1 (as salt: hydrochloride) [Compound I-75, ((2S)-7-Fluoro-8-(2,4-di-chloro-phenyl)-2,3-dihydrobenzo[b][1,4]dioxin-2-yl) methanamine] | 65 °C |
| CNCC1COc2cccc(-c3cccc(Cl)c3Cl)c2O1 (stereo not drawn) (as salt: fumarate) [Compound I-22, {[8-(2,3-Dichlorophenyl)-2,3-dihydro-1,4-benzodioxin-2-yl]methyl}methylamine] | 184 to 185 °C |
| Clc1ccc(-c2cccc3c2OC(CNC2CC2)CO3)c(Cl)c1 (stereo not drawn) (as salt: fumarate) [Compound I-44, N-{[8-(2,4-Dichlorophenyl)-2,3-dihydro-1,4-benzodioxin-2-yl]methyl}cyclopropanamine] | 181 to 182 °C |
| CN(C)CC1COc2cccc(-c3ccccc3Cl)c2O1 (stereo not drawn) (as salt: fumarate) [Compound I-38, {[8-(2-Chlorophenyl)-2,3-dihydro-1,4-benzodioxin-2-yl]methyl}dimethylamine] | 196 to 197 °C |
| Cc1cc(Cl)ccc1-c1cc(Cl)cc2c1O[C@@H](CN)CO2 (as salt: hydrochloride) [Compound I-65, (2S)-[6-Chloro-8-(4-chloro-2-methyl-phenyl)-2,3-dihydro-benzo[1,4]dioxin-2-yl]-methylamine] | 110 °C |
| NCC1Oc2cc(F)cc(-c3ccccc3Cl)c2O1 (stereo not drawn) (as salt: hydrochloride) [Compound I-84, 1-[4-(2-Chloro-phenyl)-6-fluoro-1,3-benzodioxol-2-yl]methanamine] | 192 to 194 °C |
| NCC1COc2cccc(-c3cc(Cl)ccc3Cl)c2O1 (stereo not drawn) (as salt: fumarate) [Compound I-8, {[8-(2,5-Dichlorophenyl)-2,3-dihydro-1,4-benzodioxin-2-yl]methyl}amine] | 206 to 207 °C |
| C=CCNCC1COc2cccc(-c3ccc(Cl)cc3Cl)c2O1 (stereo not drawn) (as salt: fumarate) [Compound I-40, N-{[8-(2,4-Dichlorophenyl)-2,3-dihydro-1,4-benzodioxin-2-yl]methyl}prop-2-en-1-amine] | 167 to 168 °C |
| Cc1ccc(C)c(-c2cccc3c2OC(CN)CO3)c1 (stereo not drawn) (as salt: fumarate) [Compound I-11, {[8-(2,5-Dimethylphenyl)-2,3-dihydro-1,4-benzodioxin-2-yl]methyl}amine] | 199 to 200 °C |
| CNCC1COc2cccc(-c3ccccc3C)c2O1 (stereo not drawn) (as salt: fumarate) [Compound I-17, N-Methyl-N-{[8-(2-methylphenyl)-2,3-dihydro-1,4-benzodioxin-2-yl]methyl}amine] | 177 to 178 °C |
| CCCNCC1COc2cccc(-c3ccc(Cl)cc3Cl)c2O1 (stereo not drawn) (as salt: fumarate) [Compound I-35, N-{[8-(2,4-Dichlorophenyl)-2,3-dihydro-1,4-benzodioxin-2-yl]methyl}propan-1-amine] | 178 to 179 °C |
| NCC1Oc2cc(Cl)cc(-c3ccc(Cl)cc3Cl)c2O1 (stereo not drawn) (as salt: hydrochloride) [Compound I-96, [6-Chloro-4-(2,4-dichloro-phenyl)-benzo[1,3]dioxol-2-yl]-methylamine] | > 250 °C |

Biological target: T1, human 5-HT2C receptor (Homo sapiens, UniProt P28335)
T1 sequence (P28335 33-458): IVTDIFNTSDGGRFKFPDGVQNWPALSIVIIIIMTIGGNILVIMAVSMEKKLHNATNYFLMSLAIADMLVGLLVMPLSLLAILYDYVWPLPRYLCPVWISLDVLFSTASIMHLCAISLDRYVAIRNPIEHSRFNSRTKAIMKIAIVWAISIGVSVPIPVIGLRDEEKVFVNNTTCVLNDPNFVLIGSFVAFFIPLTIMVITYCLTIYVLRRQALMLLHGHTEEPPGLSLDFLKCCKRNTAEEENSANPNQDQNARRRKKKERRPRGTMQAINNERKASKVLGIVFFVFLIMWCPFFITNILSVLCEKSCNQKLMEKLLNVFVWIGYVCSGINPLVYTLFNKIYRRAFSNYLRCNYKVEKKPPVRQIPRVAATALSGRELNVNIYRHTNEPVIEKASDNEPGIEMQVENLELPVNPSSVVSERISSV
Assay: 5-HT2C receptor-stimulated calcium mobilization (FLIPR) in CHO cells
Format: cell-based
Conditions: CHO; read-out: 5-HT2C Function EMax (%)

| Compound | Emax |
| --- | --- |
| CNCC1COc2cccc(-c3cccc(C)c3C)c2O1 (stereo not drawn) [Compound I-25, {[8-(2,3-Dimethylphenyl)-2,3-dihydro-1,4-benzodioxin-2-yl]methyl}methylamine] | 30% |
| CNCC1COc2cccc(-c3cc(C)ccc3C)c2O1 (stereo not drawn) [Compound I-26, {[8-(2,5-Dimethylphenyl)-2,3-dihydro-1,4-benzodioxin-2-yl]methyl}methylamine] | 50% |
| CNCC1COc2cccc(-c3cccc(F)c3F)c2O1 (stereo not drawn) [Compound I-27, {[8-(2,3-Difluorophenyl)-2,3-dihydro-1,4-benzodioxin-2-yl]methyl}methylamine] | 20% |
| CNCC1COc2cccc(-c3cccc(Cl)c3Cl)c2O1 (stereo not drawn) [Compound I-22, {[8-(2,3-Dichlorophenyl)-2,3-dihydro-1,4-benzodioxin-2-yl]methyl}methylamine] | 40% |
| CNCC1COc2cccc(-c3ccccc3C)c2O1 (stereo not drawn) [Compound I-17, N-Methyl-N-{[8-(2-methylphenyl)-2,3-dihydro-1,4-benzodioxin-2-yl]methyl}amine] | 60% |
| CNCC1COc2cccc(-c3ccc(F)cc3F)c2O1 (stereo not drawn) [Compound I-28, {[8-(2,4-Difluorophenyl)-2,3-dihydro-1,4-benzodioxin-2-yl]methyl}methylamine] | 30% |

Same assay, conditions: read-out: 5-HT2C Function EC50

| Compound | pEC50 |
| --- | --- |
| CNCC1COc2cccc(-c3cccc(C)c3C)c2O1 (stereo not drawn) [Compound I-25, {[8-(2,3-Dimethylphenyl)-2,3-dihydro-1,4-benzodioxin-2-yl]methyl}methylamine] | < 6.30 |
| CNCC1COc2cccc(-c3cc(C)ccc3C)c2O1 (stereo not drawn) [Compound I-26, {[8-(2,5-Dimethylphenyl)-2,3-dihydro-1,4-benzodioxin-2-yl]methyl}methylamine] | > 7.00 |
| CNCC1COc2cccc(-c3cccc(F)c3F)c2O1 (stereo not drawn) [Compound I-27, {[8-(2,3-Difluorophenyl)-2,3-dihydro-1,4-benzodioxin-2-yl]methyl}methylamine] | 6.30 to 7.00 |
| CNCC1COc2cccc(-c3cc(F)ccc3F)c2O1 (stereo not drawn) [Compound I-29, {[8-(2,5-Difluorophenyl)-2,3-dihydro-1,4-benzodioxin-2-yl]methyl}methylamine] | < 6.30 |
| CNCC1COc2cccc(-c3cccc(Cl)c3Cl)c2O1 (stereo not drawn) [Compound I-22, {[8-(2,3-Dichlorophenyl)-2,3-dihydro-1,4-benzodioxin-2-yl]methyl}methylamine] | > 7.00 |
| CNCC1COc2cccc(-c3ccccc3C)c2O1 (stereo not drawn) [Compound I-17, N-Methyl-N-{[8-(2-methylphenyl)-2,3-dihydro-1,4-benzodioxin-2-yl]methyl}amine] | > 7.00 |
| CNCC1COc2cccc(-c3ccc(F)cc3F)c2O1 (stereo not drawn) [Compound I-28, {[8-(2,4-Difluorophenyl)-2,3-dihydro-1,4-benzodioxin-2-yl]methyl}methylamine] | < 6.30 |

Same assay, conditions: reference compounds; read-out: EC50

| Compound | pEC50 |
| --- | --- |
| Cc1cc2c(cc1Cl)N(C(=O)Nc1ccc(Oc3cccnc3C)nc1)CC2 [SB242084, reference compound] | 11.00 |
